Test results: the supplement of paper PMC10307832

Tests used:
Test in all cases: relative viability (nuclei count vs DMSO), 5 days (fraction); higher = more cells survive
[1] = compound: CN1CCC(CNc2ccc3ncc(-c4cccc(OC(F)(F)F)c4)n3n2)CC1 [SGI-1776] + COc1cccc2cc(-c3nc([C@H]4CC[C@H](C(=O)O)CC4)n4ncnc(N)c34)[nH]c12 [OSI-027] (partner 0.5 µM)
Outline: (§1)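 Relative viability was taken as the ratio of nuclei in treated wells to nuclei in vehicle wells. Lung cancer cell lines in 1536-well plates received compounds by pin tool one day after seeding, either one drug alone or a fixed anchor-drug dose plus five library-drug doses (not always all listed) in √10 steps. Nuclei were counted on 4× images after 5 days of treatment, and values are medians of duplicate plates.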

[2] = compound: Nc1ccccc1NC(=O)c1ccc(CNC(=O)OCc2cccnc2)cc1 [Entinostat] + CC(=O)Nc1cccc(-n2c(=O)n(C3CC3)c(=O)c3c(Nc4ccc(I)cc4F)n(C)c(=O)c(C)c32)c1 [Trametinib] (partner 0.02 µM)
Outline: as §1

[3] = compound: Nc1ccccc1NC(=O)c1ccc(CNC(=O)OCc2cccnc2)cc1 [Entinostat] + C[C@]1(O)C[C@@H](c2nc(-c3ccc4ccc(-c5ccccc5)nc4c3)c3c(N)nccn32)C1 [Linsitinib] (partner 1 µM)
Outline: as §1

[4] = compound: C1COCCN1C2=NC(=NC3=C2OC4=C3C=CC=N4)C5=CC(=CC=C5)NC(=O)C6=CN=C(C=C6)N + CC1(C)CCC(c2ccc(Cl)cc2)=C(CN2CCN(c3ccc(C(=O)NS(=O)(=O)c4ccc(N[C@H](CCN5CCOCC5)CSc5ccccc5)c(S(=O)(=O)C(F)(F)F)c4)cc3)CC2)C1 [Navitoclax] (partner 0.5 µM)
Outline: as §1

Cell Line | relative viability ([1]; first compound 0.08 µM) | relative viability ([1]; first compound 0.8 µM) | relative viability ([1]; first compound 2.53 µM) | relative viability ([1]; first compound 8 µM) | relative viability ([2]; first compound 0.02 µM) | relative viability ([2]; first compound 0.06325 µM) | relative viability ([2]; first compound 0.2 µM) | relative viability ([2]; first compound 0.6325 µM) | relative viability ([2]; first compound 2 µM) | relative viability ([3]; first compound 0.02 µM) | relative viability ([3]; first compound 0.06325 µM) | relative viability ([3]; first compound 0.2 µM) | relative viability ([3]; first compound 0.6325 µM) | relative viability ([3]; first compound 2 µM) | relative viability ([4]; first compound 0.02 µM) | relative viability ([4]; first compound 0.06325 µM) | relative viability ([4]; first compound 0.2 µM) | relative viability ([4]; first compound 0.6325 µM) | relative viability ([4]; first compound 2 µM)
NCI-H650 | 0.565 | 0.489 | 0.501 | 0.378 | 1.06 | 1 | 0.917 | 0.708 | 0.487 | 1.03 | 1.16 | 0.902 | 0.552 | 0.243 |  |  |  |  | 
NCI-H1993 | 0.549 | 0.52 | 0.551 | 0.525 | 0.484 | 0.572 | 0.504 | 0.475 | 0.492 | 0.642 | 0.832 | 0.673 | 0.65 | 0.661 | 0.819 | 1.06 | 0.822 | 0.874 | 0.763
NCI-H358 | 0.747 | 0.856 | 0.663 | 0.304 | 0.175 | 0.164 | 0.135 | 0.117 | 0.127 | 0.699 | 0.905 | 0.934 | 0.503 | 0.238 |  |  |  |  | 
RERF-LC-KJ | 0.592 | 0.52 | 0.507 | 0.305 | 0.915 | 0.833 | 0.726 | 0.418 | 0.323 | 0.912 | 0.766 | 0.885 | 0.536 | 0.239 | 0.966 | 0.995 | 0.759 | 1 | 0.712
NCI-H1915 | 0.642 | 0.645 | 0.618 | 0.49 | 0.314 | 0.311 | 0.289 | 0.246 | 0.229 | 1.1 | 1.04 | 0.966 | 0.912 | 0.459 | 0.757 | 0.838 | 0.824 | 0.836 | 0.873
NCI-H647 | 0.712 | 0.613 | 0.559 | 0.301 | 0.48 | 0.398 | 0.525 | 0.322 | 0.133 | 1.23 | 1.14 | 0.932 | 0.327 | 0.121 | 1.18 | 1.11 | 1.22 | 1.16 | 0.704
SK-LU-1 | 0.397 | 0.328 | 0.335 | 0.166 | 0.445 | 0.617 | 0.463 | 0.361 | 0.402 | 1.1 | 1.04 | 0.909 | 0.657 | 0.516 | 0.982 | 0.724 | 0.863 | 0.765 | 0.447
